Assay [1] has as its target T1, Neuropeptide Y receptor type 1 (Homo sapiens, UniProt P25929).
T1 sequence (P25929 whole entry): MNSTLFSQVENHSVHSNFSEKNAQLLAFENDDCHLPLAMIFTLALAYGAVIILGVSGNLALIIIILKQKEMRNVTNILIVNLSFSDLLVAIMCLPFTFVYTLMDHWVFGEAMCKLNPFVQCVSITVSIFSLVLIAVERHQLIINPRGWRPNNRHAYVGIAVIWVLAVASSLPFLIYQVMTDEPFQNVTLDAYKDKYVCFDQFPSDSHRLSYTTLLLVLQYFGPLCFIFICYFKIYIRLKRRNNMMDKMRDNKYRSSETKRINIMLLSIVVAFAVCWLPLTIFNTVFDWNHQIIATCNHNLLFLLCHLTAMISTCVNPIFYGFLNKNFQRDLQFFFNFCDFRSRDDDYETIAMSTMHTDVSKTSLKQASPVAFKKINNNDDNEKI

For assay [2], the target named is T2, Alpha-1A adrenergic receptor (Homo sapiens, UniProt P35348).
T2 sequence (P35348 whole entry): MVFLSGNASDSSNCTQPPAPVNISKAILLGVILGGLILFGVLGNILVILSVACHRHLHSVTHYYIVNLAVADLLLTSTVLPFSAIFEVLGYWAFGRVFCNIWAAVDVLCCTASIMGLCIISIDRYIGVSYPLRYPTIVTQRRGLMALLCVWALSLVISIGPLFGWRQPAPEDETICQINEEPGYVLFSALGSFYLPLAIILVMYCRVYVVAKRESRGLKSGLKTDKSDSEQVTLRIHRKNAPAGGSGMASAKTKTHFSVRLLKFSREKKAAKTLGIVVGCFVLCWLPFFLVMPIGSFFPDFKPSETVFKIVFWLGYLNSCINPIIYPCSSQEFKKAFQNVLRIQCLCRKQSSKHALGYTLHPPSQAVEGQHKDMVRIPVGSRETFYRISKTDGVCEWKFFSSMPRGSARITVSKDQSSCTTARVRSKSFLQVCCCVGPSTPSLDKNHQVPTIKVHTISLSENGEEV
It is filed as functional, cell-based.

For assay [3], the target named is T3, Prostaglandin G/H synthase 1 (Rattus norvegicus, UniProt Q63921).
T3 sequence (Q63921 whole entry): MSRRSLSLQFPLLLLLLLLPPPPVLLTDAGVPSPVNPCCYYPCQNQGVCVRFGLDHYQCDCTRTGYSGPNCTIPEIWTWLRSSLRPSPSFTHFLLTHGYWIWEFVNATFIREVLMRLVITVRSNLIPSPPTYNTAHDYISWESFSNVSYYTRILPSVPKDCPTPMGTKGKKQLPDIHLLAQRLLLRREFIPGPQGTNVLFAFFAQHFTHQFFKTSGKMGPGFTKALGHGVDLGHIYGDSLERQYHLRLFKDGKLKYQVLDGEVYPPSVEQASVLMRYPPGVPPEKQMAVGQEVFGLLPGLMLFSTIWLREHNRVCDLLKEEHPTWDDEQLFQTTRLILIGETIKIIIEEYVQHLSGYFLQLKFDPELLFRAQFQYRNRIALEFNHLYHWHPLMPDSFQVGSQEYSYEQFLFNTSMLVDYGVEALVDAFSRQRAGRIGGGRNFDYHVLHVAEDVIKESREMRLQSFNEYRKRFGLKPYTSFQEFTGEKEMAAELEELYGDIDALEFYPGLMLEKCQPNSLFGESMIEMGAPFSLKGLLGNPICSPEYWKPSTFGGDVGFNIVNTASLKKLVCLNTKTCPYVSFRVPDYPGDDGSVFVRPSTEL
It is filed as functional.

In assay [4] the target is 3',5'-cyclic-AMP phosphodiesterase 4D (Homo sapiens, UniProt Q08499). It is filed as functional.
For assay [5], the target named is T4, 5-hydroxytryptamine receptor 3A (Homo sapiens, UniProt P46098).
T4 sequence (P46098 whole entry): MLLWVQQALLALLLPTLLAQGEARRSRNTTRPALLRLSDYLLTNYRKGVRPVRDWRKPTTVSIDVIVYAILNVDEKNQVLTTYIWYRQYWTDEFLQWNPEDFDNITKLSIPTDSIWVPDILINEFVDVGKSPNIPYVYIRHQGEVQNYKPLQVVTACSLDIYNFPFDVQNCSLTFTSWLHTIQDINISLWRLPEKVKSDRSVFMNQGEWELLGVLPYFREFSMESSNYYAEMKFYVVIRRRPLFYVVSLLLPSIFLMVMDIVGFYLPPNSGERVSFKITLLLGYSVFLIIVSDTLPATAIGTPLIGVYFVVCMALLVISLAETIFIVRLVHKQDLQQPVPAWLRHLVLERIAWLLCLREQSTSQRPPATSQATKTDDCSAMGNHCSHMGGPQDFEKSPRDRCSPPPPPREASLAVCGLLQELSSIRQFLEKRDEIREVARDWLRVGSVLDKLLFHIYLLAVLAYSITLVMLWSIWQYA
It is filed as functional.

The target of assay [6] is Glutamate receptor ionotropic, NMDA 1 (Rattus norvegicus, UniProt P35439).
The target in a further assay is T5, B2 bradykinin receptor (Homo sapiens, UniProt P30411).
T5 sequence (P30411 whole entry): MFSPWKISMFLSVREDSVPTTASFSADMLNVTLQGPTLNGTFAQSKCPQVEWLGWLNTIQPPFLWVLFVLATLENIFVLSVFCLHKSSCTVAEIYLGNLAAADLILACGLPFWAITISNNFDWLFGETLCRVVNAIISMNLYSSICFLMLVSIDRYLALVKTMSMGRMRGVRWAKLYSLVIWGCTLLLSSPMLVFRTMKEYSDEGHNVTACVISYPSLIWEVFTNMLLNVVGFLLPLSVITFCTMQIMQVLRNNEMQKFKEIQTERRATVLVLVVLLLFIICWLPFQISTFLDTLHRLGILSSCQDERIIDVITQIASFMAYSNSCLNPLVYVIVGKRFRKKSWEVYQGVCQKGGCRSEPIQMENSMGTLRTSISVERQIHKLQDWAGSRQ

Assay [7] concerns the target Growth hormone secretagogue receptor type 1 (Homo sapiens, UniProt Q92847).
Assay [8] has as its target Delta-type opioid receptor (Homo sapiens, UniProt P41143).
Assay [9] deals with Gamma-aminobutyric acid receptor subunit alpha-1 (Rattus norvegicus, UniProt P62813).
Further: assay procedure not described here.

Chain of Gamma-aminobutyric acid receptor subunit alpha-1 (P62813 whole entry): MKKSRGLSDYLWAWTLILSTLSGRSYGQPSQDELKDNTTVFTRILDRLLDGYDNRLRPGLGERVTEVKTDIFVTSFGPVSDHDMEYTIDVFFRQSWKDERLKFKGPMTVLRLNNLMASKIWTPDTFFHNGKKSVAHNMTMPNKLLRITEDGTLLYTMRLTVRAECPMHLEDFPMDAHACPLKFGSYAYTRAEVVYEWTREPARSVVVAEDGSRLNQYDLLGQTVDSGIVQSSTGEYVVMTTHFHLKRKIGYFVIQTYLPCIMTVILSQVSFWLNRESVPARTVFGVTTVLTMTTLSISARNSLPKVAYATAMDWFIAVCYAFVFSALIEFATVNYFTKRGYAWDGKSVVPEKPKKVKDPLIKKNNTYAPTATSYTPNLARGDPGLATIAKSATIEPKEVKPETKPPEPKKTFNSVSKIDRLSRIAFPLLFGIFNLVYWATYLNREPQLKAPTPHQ
Chain of Growth hormone secretagogue receptor type 1 (Q92847 whole entry): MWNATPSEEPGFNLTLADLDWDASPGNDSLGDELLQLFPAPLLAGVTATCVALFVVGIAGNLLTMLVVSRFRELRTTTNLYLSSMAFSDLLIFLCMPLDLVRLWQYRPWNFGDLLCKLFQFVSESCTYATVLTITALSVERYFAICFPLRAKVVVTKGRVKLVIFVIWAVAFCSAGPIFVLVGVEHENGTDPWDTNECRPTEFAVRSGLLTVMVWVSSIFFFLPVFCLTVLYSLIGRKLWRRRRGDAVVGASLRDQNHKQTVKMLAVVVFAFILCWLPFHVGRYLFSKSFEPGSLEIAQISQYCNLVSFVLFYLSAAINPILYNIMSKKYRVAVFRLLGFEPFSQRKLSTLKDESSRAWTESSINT
Chain of Delta-type opioid receptor (P41143 whole entry): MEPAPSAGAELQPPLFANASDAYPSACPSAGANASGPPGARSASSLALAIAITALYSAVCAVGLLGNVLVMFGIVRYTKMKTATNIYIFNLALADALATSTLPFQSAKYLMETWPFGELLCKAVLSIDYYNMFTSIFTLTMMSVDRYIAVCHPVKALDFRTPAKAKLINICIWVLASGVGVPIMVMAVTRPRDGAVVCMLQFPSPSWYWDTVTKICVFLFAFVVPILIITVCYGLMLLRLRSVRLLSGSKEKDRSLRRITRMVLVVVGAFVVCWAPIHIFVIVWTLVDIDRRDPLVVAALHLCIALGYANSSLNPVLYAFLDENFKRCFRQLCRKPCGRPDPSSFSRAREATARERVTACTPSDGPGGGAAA
Chain of 3',5'-cyclic-AMP phosphodiesterase 4D (Q08499 whole entry): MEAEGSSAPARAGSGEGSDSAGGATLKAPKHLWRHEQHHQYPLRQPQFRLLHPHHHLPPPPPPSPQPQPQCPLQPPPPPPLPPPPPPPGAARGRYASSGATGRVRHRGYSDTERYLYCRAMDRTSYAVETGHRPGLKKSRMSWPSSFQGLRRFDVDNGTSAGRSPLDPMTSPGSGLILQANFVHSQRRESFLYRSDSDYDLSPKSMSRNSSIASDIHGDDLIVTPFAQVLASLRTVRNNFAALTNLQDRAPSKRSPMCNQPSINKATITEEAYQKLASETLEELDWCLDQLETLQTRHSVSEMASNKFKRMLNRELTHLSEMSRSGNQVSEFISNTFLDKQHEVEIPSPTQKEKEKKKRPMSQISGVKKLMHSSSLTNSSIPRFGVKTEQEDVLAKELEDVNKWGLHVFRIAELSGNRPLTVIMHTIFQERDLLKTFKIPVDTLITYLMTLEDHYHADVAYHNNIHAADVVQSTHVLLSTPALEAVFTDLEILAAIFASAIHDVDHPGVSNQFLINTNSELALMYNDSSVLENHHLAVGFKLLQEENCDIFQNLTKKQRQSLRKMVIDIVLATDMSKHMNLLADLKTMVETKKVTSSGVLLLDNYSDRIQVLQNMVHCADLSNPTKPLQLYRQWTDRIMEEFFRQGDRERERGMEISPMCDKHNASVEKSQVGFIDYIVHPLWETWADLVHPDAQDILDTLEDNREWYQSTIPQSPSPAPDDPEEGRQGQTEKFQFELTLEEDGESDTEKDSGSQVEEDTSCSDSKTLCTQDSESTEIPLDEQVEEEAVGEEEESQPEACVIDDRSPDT

`NC(=O)CN1CC(O)CC1=O` (stereo not given) [OXIRACETAM]: the AC50 in [1], in assay [2], in assay [3], in assay [4], in assay [5] and in assay [6] was > 30 µM throughout. Further, the AC50 (at B2 bradykinin receptor; in [7]; in assay [8]; in [9]) was > 30 µM each time.

For the compound `C[C@@H]1O[C@@H](O[C@@H]2C=C3CC[C@@H]4[C@H](CC[C@]5(C)[C@@H](c6ccc(=O)oc6)CC[C@]45O)[C@@]3(C)CC2)[C@H](O)[C@H](O)[C@H]1O` [PROSCILLARIDIN], the AC50 in assay [1] is > 30 µM; in [2], > 30 µM; in [3], 13 µM; in [4], > 30 µM; in assay [5], > 30 µM; in assay [6], > 30 µM. Moreover, the AC50 (at B2 bradykinin receptor; in assay [7]; in [8]; in assay [9]) was > 30 µM throughout.

`C#C[C@]1(O)CC[C@H]2[C@@H]3[C@H](C)CC4=C(CCC(=O)C4)[C@H]3CC[C@@]21C` [TIBOLONE]: the concentration at half-maximal activity (AC50) in [1] was > 30 µM; in assay [2], > 30 µM; in [3], 4.5 µM; in assay [4], 6.9 µM; in [5], > 30 µM; in assay [6], > 30 µM. The AC50 (at B2 bradykinin receptor; in assay [7]; in assay [8]; in [9]) was > 30 µM each time.

Turning to `COc1cccc(C2(O)CCCCC2CN(C)C)c1` (stereo not given) [TRAMADOL], the AC50 was > 30 µM in [1]; > 30 µM in assay [2]; > 30 µM in assay [3]; > 30 µM in assay [4]; > 30 µM in assay [5]; > 10 µM in assay [6]. The AC50 was > 30 µM on B2 bradykinin receptor, > 30 µM in assay [7], > 30 µM in [8] and > 10 µM in assay [9].

As to `Cc1nnc2n1-c1ccc(Cl)cc1C(c1ccccc1Cl)=NC2` [TRIAZOLAM], the AC50 in assay [1] was > 30 µM; in assay [2] it was > 30 µM; in [3], > 30 µM; in assay [4], 33 µM; in [5] it was > 30 µM; in assay [6], > 10 µM. Further, the AC50 on B2 bradykinin receptor is > 30 µM; in [7] it was > 30 µM; in [8], > 30 µM; in assay [9] it was > 10 µM.

For the origin of these results see ChEMBL document CHEMBL5291721, “A preclinical secondary pharmacology resource illuminates target-adverse drug reaction associations of marketed drugs” (Nat Commun, 2023).
